Assay results taken from patent US6864068B2, “Antifungal proteins” (Syngenta Limited, priority 1995, dated 2005).
Square brackets hold non-standard residues; d marks the D form. Ends that are not written are not given here. pGlu = O=C1CC[C@@H](C(=O)O)N1

What was measured:
Fusarium culmorum [1] = assay: Liquid growth inhibition assay in half strength potato dextrose broth; format: cell-based; details: for IC50 (concentration required for 50% growth inhibition) / type of inhibition (hyphal morphology): F culmorum; for IC50 (concentration required for 50% growth inhibition): from dose-response curves of serial dilutions; for type of inhibition (hyphal morphology): induction of multiple branches near the tips
Method: Yeast cells transformed with either pTG3828, pMFprepro/Rs AFP2 or PMFpre/RsAFP2 were grown in selective SD medium until a saturated culture was obtained. To assess the antifungal activity of proteins secreted by the yeast cells, the supernatant of the yeast cultures was filtered (sterile 0.22 μm filter) and serially diluted in sterile water. Diluted samples (20 μl) were incubated in microtiter plate wells with 80 μl of half strength potato dextrose broth (Difco) containing spores 10^4 spores/ml) of Fusarium culmorum.
Growth of the fungi was monitored by microspectrophotometry as described by Broekaert et al (1990, FEMS Microbiol Lett, 69:55-60). Homogenates of yeast cells were prepared by spinning down 1 ml of a saturated yeast culture, suspending the cells in 200 μl of water, vortexing the cells in the presence of 0.2 g of glass beads (425-600 μm), and clearing the homogenate by centrifugation (1 min, 10000×g). Antifungal activity could only be detected in the culture medium of yeast cells transformed with pMFprepro/RsAFP2, which contained about 2 μg/ml of Rs-AFP2 equivalents. The activity of the homogenate of these cells, as well as that of culture media and cell homogenates of yeast cells transformed with pMFpre/RsAFP2 or pTG3828 transformed yeasts was below the detection limit (about 0.2 μg/ml of Rs-AFP2 equivalents).
The supernatant of 100 ml of a saturated culture of yeast transformed with pMFprepro/RsAFP2 (grown on minimal selective SD medium supplemented with 0.5% w/v of casamino acids) was centrifuged (4000 rpm, 10 min), and filtered (0.45 μm) to remove yeast cells and debris. Tris-HC1 (pH9) was added to the supernatant to a final concentration of 50 mM. The sample was loaded at a flow rate of 2 ml/min on an anion exchange chromatography column (Q-Sepharose Fast Flow, 20 ml bed volume, Pharmacia), on-line connected with a disposable reversed-phase C8 silica column (Bond Elut, 500 mg solid phase, Varian, Harbor City, USA). The antifungal activity was not retained on the Q-Sepharose matrix but bound to the C8 silica matrix. […] The latter eluate was dried in a rotating vacuum concentrator, redissolved in 0.5 ml 15% (v/v) acetonitrile containing 0.1% (v/v) TFA, and was loaded on a reversed-phase C2/C18 silica column (Pep-S, 5 μm beads, 0.4×25 cm, Pharmacia connected to a Waters 600 HPLC station pre-equilibriated with 15% acetonitrile containing 0.1% (v/v) TFA. After loading, the column was rinsed with the same buffer until the absorbance reached background level. The column was subsequently eluted with a 15 minute linear gradient from 15% to 50% acetonitrile containing 0.1% TFA at a flow rate of 1 ml/min. The eluate was monitored for proteins by on-line measurement of the absorbance at 280 nm. […] Twenty μl fractions were tested in a liquid growth inhibition assay: 20 μl samples were incubated in microtiter plate wells with 80 μl of half strength potato dextrose broth (Difco) containing 10^4 spores/ml of F culmorum; growth of the fungi was monitored by microspectrophotometry as described by Broekaert et al (1990, FEMS Microbiol Lett, 69: 55-60).
The specific antifungal activity of RPC-purified peak A material, as well as that of plant-derivable Rs-AFP2, was determined by measuring the percentage growth inhibition of F culmorum caused by serial dilutions of the protein samples. […]

F culmorum [2] = assay: Specific antifungal activity of Rs-AFP2 isoforms in SMF− and SMF+ media; format: cell-based; design: IC50 SMF− / IC50 SMF+: unit not given here
Method: For each isoform, two independent purifications were carried out and the antifungal activity was determined in duplicate using F culmorum as a test fungus in two different media: a low ionic strength medium called SMF-(Terras et al, 1992, J Biol Chem, 267:15301-15309) and the same medium supplemented with 1 mM CaCl2 and 50 mM KCl called SMF+. The presence of salts in the test medium, especially salts with divalent cations, reduces the specific activity of Rs-AFP2. Seed-purified as well as yeast-expressed wild type Rs-AFP2 served as a control in the assays.
The relative specific activity is expressed as the specific activity of the mutant divided by the specific activity of yRs-AFP2 and multiplied by 100. […] The specific activity was measured in medium SMF−and SMF+.
Deviations are given as standard error of the mean (sem) based on the triplicate experiments. In SMF−, the medium without added salts, most of the derivatives show no decrease or only a minor decrease in antifungal activity, while in SMF+, the medium with added salts, there is a significant decrease in antifungal activity for several Rs-AFP2 isoforms.

F culmorum [3] = assay: Growth inhibition in SMF with varying CaCl2 or KCl (FIG. 7); format: cell-based
Method: Their antifungal activity was determined in SMF with increasing Ca^2+ or K^+ concentration and compared with that of plant-derivable wild type Rs-AFP2 (isolated from seed) as well as yeast purified Rs-AFP2. FIG. 7 is a graph of the percentage growth inhibition of F culmorum caused by 10 μg/ml of yeast-purified Rs-AFP2 (SEQ ID NO: 20) (open circles), seed-purified Rs-AFP2 (SEQ ID NO: 77) (closed circles), Rs-AFP2/G9R (SEQ ID NO: 38) (squares) and Rs-AFP2/V39R (SEQ ID NO: 43) (triangles) in a medium consisting of SMF with varying concentrations of CaCl2 (panel A) and KCl (panel B).

various fungi = details: cited from earlier work
Ascochyta pisi = assay: Antifungal activity in three media differing in ionic strength (Table 3); format: cell-based; details: 72 hours
Method: (§1) The antifungal activity of the G9R and V39R Rs-AFP2 isoforms was also assessed on a set of seven different phytopathogenic fungi in three media differing in ionic strength: SMF−, SMF plus 1 mM CaCl2 and 50 mM KCl, and SMF plus 5 mM CaCl2 and 50 mM KCl. The fungi tested were: Alternaria brassicicola, Ascochyta pisi, Botrytis cinerea, Fusarium culmorum, Nectria haematococca, Phoma betae and Verticillium dahliae.

Botrytis cinerea = assay: as above; format: cell-based; details: 72 hours
Method: as §1

Nectria haematococca = assay: as above; format: cell-based; details: 72 hours
Method: as §1

Verticillium dahliae = assay: as above; format: cell-based; details: 96 hours
Method: as §1

Alternaria brassicicola = assay: as above; format: cell-based; details: 72 hours
Method: as §1

Phoma betae = assay: as above; format: cell-based
Method: as §1

Fusarium culmorum [4] = assay: as above; format: cell-based; details: 96 hours
Method: as §1

yRs-AFP2: yeast-expressed wild-type Rs-AFP2 (QKLCQRPSGTWSGVCGNNNACKNQCIRLEKARHGSCNYVFPAHKCICYFPC; listed as Raphanus sativus) [reference compound]
IC50 (concentration required for 50% growth inhibition) (Fusarium culmorum [1]): about 3 μg/ml
type of inhibition (hyphal morphology) (Fusarium culmorum [1]): characteristic morphological distortion of the fungal hyphae
RELATIVE SPECIFIC ACTIVITY (%) IN MEDIUM SMF+ (F culmorum [2]; 1/IC50 of mutant divided by that of yRs-AFP2 x 100, 48 hour incubation, SMF with 1 mM CaCl2 and 50 mM KCl, preliminary tests): 100%
RELATIVE SPECIFIC ACTIVITY (%) IN MEDIUM SMF− (F culmorum [2]; 1/IC50 of mutant divided by that of yRs-AFP2 x 100, 48 hour incubation, low ionic strength medium, preliminary tests): 100%
IC50 SMF+ (F culmorum [2]; 72 hours growth, high salt medium (1 mM CaCl2, 50 mM KCl), triplicate): 8.5
IC50 SMF− (F culmorum [2]; 72 hours growth, low salt medium, triplicate): 2.7

Rs-AFP2: plant-derivable wild-type antifungal protein 2 from Raphanus sativus (radish) seeds ([pGlu]KLCQRPSGTWSGVCGNNNACKNQCIRLEKARHGSCNYVFPAHKCICYFPC; cysteine pairing not given here; listed as Raphanus sativus) [reference compound]
activity in the presence of 100 mM KCl (F culmorum [3]; SMF with 100 mM KCl, FIG. 7, 10 μg/ml): drastically reduced
CaCl2 concentration at which fully active (F culmorum [3]; protein 10 μg/ml): ≤ 1.25 mM
growth inhibition in the presence of 5mM CaCl2 (F culmorum [3]; protein 10 μg/ml, SMF with 5mM CaCl2): basically inactive
IC50 (concentration required for 50% growth inhibition) (Fusarium culmorum [1]): about 3 μg/ml
type of inhibition (hyphal morphology) (Fusarium culmorum [1]): characteristic morphological distortion of the fungal hyphae
activity relative to Rs-AFP1 on various fungi (various fungi): two- to thirty-fold more active
salt-tolerance relative to Rs-AFP1 (various fungi): increased salt-tolerence
IC50 VALUES, A pisi, SMF + 1 mM CaCl2/50 mM KCl (Ascochyta pisi): >50 µg/mL
IC50 VALUES, A pisi, SMF + 5 mM CaCl2/50 mM KCl (Ascochyta pisi): >100 µg/mL
IC50 VALUES, A pisi, SMF (Ascochyta pisi; SMF−): 1.9 µg/mL
IC50 VALUES, B cinerea, SMF + 1 mM CaCl2/50 mM KCl (Botrytis cinerea): >50 µg/mL
IC50 VALUES, B cinerea, SMF + 5 mM CaCl2/50 mM KCl (Botrytis cinerea): >100 µg/mL
IC50 VALUES, B cinerea, SMF (Botrytis cinerea; SMF−): 1.8 µg/mL
IC50 VALUES, N haematococca, SMF + 1 mM CaCl2/50 mM KCl (Nectria haematococca): 48.0 µg/mL
IC50 VALUES, N haematococca, SMF + 5 mM CaCl2/50 mM KCl (Nectria haematococca): >100 µg/mL
IC50 VALUES, N haematococca, SMF (Nectria haematococca; SMF−): 2.0 µg/mL
IC50 VALUES, V dahliae, SMF + 1 mM CaCl2/50 mM KCl (Verticillium dahliae): 11.0 µg/mL
IC50 VALUES, V dahliae, SMF + 5 mM CaCl2/50 mM KCl (Verticillium dahliae): 50.0 µg/mL
IC50 VALUES, V dahliae, SMF (Verticillium dahliae; SMF−): 1.0 µg/mL
IC50 VALUES, A brassicicola, SMF + 1 mM CaCl2/50 mM KCl (Alternaria brassicicola): >50 µg/mL
IC50 VALUES, A brassicicola, SMF + 5 mM CaCl2/50 mM KCl (Alternaria brassicicola): >100 µg/mL
IC50 VALUES, A brassicicola, SMF (Alternaria brassicicola; SMF−): 3.2 µg/mL
IC50 VALUES, P betae, SMF + 1 mM CaCl2/50 mM KCl (Phoma betae; 72 hours): 14.0 µg/mL
IC50 VALUES, P betae, SMF + 5 mM CaCl2/50 mM KCl (Phoma betae; 72 hours): 27.0 µg/mL
IC50 VALUES, P betae, SMF (Phoma betae; SMF−, 72 hours): 0.9 µg/mL
activity against P betae compared with the G9R and V39R isoforms, in words (Phoma betae; Table 3 data): appeared to be more active
IC50 VALUES, F culmorum, SMF + 1 mM CaCl2/50 mM KCl (Fusarium culmorum [4]): 4.6 µg/mL
IC50 VALUES, F culmorum, SMF + 5 mM CaCl2/50 mM KCl (Fusarium culmorum [4]): 22.0 µg/mL
IC50 VALUES, F culmorum, SMF (Fusarium culmorum [4]; SMF−): 2.1 µg/mL

SIα2: Sorghum bicolor α-amylase inhibitor 2, partially homologous to Rs-AFP2
antifungal activity (Fusarium culmorum [1]; assayed as described in Example 2): does not exhibit antifungal activity
